This note sets out measurements from ChEMBL document CHEMBL1122867, “Inhibition of human leukocyte elastase, porcine pancreatic elastase, and chymotrypsin by elasnin and other 4-hydroxy-2-pyrones” (J Med Chem, 1985).

For one data set, the target named is T1, Neutrophil elastase (Homo sapiens, UniProt P08246).
T1 sequence (P08246 whole entry): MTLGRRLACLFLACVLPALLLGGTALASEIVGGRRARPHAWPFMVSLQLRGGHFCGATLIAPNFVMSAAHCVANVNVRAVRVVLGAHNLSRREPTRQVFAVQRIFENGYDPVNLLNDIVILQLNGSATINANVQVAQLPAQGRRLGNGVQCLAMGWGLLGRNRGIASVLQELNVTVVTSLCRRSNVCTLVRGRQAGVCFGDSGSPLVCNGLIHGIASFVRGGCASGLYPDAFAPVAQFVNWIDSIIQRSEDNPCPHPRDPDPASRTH
In words: Inhibitory activity against human leukocyte elastase (HL elastase) expressed as inhibitory constant.

Data set [1] concerns the target Chymotrypsin-like elastase family member 1 (Sus scrofa, UniProt P00772). Description: Inhibitory activity against porcine pancreatic elastase (PP elastase) expressed as inhibitory constant.
Data set [2] can be described thus: Partition coefficient (logP) (octanol/saline). It is filed as physicochemical.

Sequence of Chymotrypsin-like elastase family member 1 (P00772 whole entry): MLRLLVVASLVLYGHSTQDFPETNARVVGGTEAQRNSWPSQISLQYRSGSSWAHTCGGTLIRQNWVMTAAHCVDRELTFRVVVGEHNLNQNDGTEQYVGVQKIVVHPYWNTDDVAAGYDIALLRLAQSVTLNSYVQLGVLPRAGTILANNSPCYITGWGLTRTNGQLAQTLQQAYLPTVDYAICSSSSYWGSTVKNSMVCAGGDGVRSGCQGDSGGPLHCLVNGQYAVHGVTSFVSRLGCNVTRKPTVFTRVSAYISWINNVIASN

As for `CCCCc1c(CC(C)O)oc(=O)c(CCCC)c1OC(C)=O` (stereo unspecified), the figures for the inhibition constant Ki (at Neutrophil elastase; in data set [1]) were 347 µM and 1070 µM, respectively. Also, the logP in data set [2] turned out to be 1.92.
On to `CCCCCCC(C=O)(CCCC)c1oc(=O)c(CCCC)c(O)c1CCCC` (stereo unspecified), for which the values for the Ki (at Neutrophil elastase; in data set [1]) were 151 µM and 15.1 µM, respectively. In addition, in data set [2], the logP amounted to 1.52.
Taken in the same sequence, the figures for `Cc1c(O)cc(CC(=O)c2ccccc2)oc1=O` were 977 µM, 2140 µM and 0.78.
The matching figures for `C/C=C(\c1ccccc1)c1oc(=O)c(CCCC)c(O)c1CCCC`: 363 µM, 141 µM and 1.39.
`Cc1cc(O)c(C)c(=O)o1`: the figures for the Ki (on Neutrophil elastase; in data set [1]) were 6310 µM and 3890 µM, respectively. Besides, the logP in data set [2] was found to be 0.74.
The matching figures for `CCCCc1c(CC(C)=O)oc(=O)c(CCCC)c1O`: 490 µM, 741 µM and 1.74.
With `Cc1c(CC(=O)c2ccccc2)oc(=O)c(C)c1O`, the Ki is 6030 µM on Neutrophil elastase and 3240 µM in data set [1]. Further, the logP in data set [2] stood at 0.73.
In the case of `CCCCc1c(C2OC2C)oc(=O)c(CCCC)c1OC(C)=O` (stereo unspecified), the Ki at Neutrophil elastase is 339 µM; in data set [1] it was 316 µM. For the same molecule, the logP in data set [2] came to 2.17.
`CCCCCC(=O)C(CCCC)c1oc(=O)c(CCCC)c(OC(C)=O)c1CCCC` (stereo unspecified) had a Ki in data set [1] of 8.13 µM. For the same molecule, the logP in data set [2] turned out to be 3.53.
In turn, `O=C(Cc1cc(=O)cc(O)o1)c1ccccc1` gave a Ki on Neutrophil elastase of 10000 µM. In data set [2], the logP came to 0.43.
`Cc1cc(O)cc(=O)o1` [4-HYDROXY-6-METHYLPYRAN-2-ONE]: the Ki at Neutrophil elastase was 8130 µM; in data set [1], 3090 µM. In addition, the logP in data set [2] was 0.5.
In the case of `CCCCc1c(CC(C)=O)oc(=O)c(CCCC)c1OC(C)=O`, the results for the Ki (at Neutrophil elastase; in data set [1]) were 288 µM and 251 µM, respectively. The molecule further showed a lipophilicity (logP) in data set [2] of 2.82.
As for `CCCCCC(=O)C(CCCC)c1oc(=O)c(CCCC)c(O)c1CCCC` (stereo unspecified), the Ki at Neutrophil elastase was 93.3 µM; in data set [1], 69.2 µM. In data set [2], this molecule showed a lipophilicity (logP) of 2.52.
`Cc1oc(=O)c(C)c(O)c1C`: the Ki was 4900 µM on Neutrophil elastase and 21900 µM in data set [1]. In data set [2], this molecule gave a logP of 0.36.
For the molecule `CCCCc1c(C)oc(O)c(CCCC)c1=O`, the values for the Ki (at Neutrophil elastase; in data set [1]) were 646 µM and 562 µM, respectively. Further, in data set [2], the logP amounted to 0.79.
`CCCCc1c(C(CCCC)C(=O)c2ccccc2)oc(=O)c(CCCC)c1O` (stereo unspecified): the Ki at Neutrophil elastase was 95.5 µM; in data set [1], 21.4 µM. Further, the logP in data set [2] worked out at 1.21.

As usually defined, the Ki is a dissociation constant, usually derived from enzyme kinetics or from competition with a known ligand. As usually defined, the logP is the decadic logarithm of the partition coefficient of the neutral form, usually between octanol and water. Higher therefore signals a more lipophilic compound.
